Test results: ChEMBL document CHEMBL1129417, “Glucose transport-enhancing and hypoglycemic activity of 2-methyl-2-phenoxy-3-phenylpropanoic acids” (1996)

Assays:
Type in all cases: functional
3T3-L1 [1] = experiment: compound was evaluated for their acute effects in vitro by measuring 2-Deoxyglucose (2DG) uptake in vehicle treated 3T3-L1 adipocytes at 100 uM dose.
Mus musculus [2] = experiment: compound was tested in vivo for hypoglycemic activity in 6-8 week old C57BL/6J ob/ob mouse at 50 mg/kg
Rattus norvegicus [3] = organism: Rattus norvegicus; experiment: Compound was tested for inhibition of gluconeogenesis
3T3-L1 [4] = experiment: Acute effects in vitro by measuring 2-deoxyglucose (2DG) uptake in vehicle treated 3T3-L1 adipocytes at 10 uM dose.
3T3-L1 [5] = experiment: Acute effects in vitro by measuring 2-deoxyglucose (2DG) uptake in vehicle treated 3T3-L1 adipocytes at 30 uM dose.
3T3-L1 [6] = experiment: In vitro by measurements of 2-Deoxyglucose (2DG) uptake in vehicle treated 3T3-L1 adipocytes at 3 uM dose.
Mus musculus [7] = experiment: compound was tested in vivo for hypoglycemic activity expressed as Glucose lowering relative to positive control in 6-8 week old C57BL/6J ob/ob mouse at 0.5 mg/kg
Mus musculus [8] = experiment: In vivo hypoglycemic activity expressed as glucose lowering relative to positive control in 6-8 week old C57BL/6J ob/ob mouse at 10 mg/kg
Mus musculus [9] = experiment: In vivo hypoglycemic activity expressed as glucose lowering relative to positive control in 6-8 week old C57BL/6J ob/ob mouse at 1 mg/kg.
Mus musculus [10] = experiment: In vivo hypoglycemic activity expressed as glucose lowering relative to positive control in 6-8 week old C57BL/6J ob/ob mouse at 5 mg/kg.
Rattus norvegicus [11] = organism: Rattus norvegicus; experiment: Inhibition of gluconeogenesis in rat
3T3-L1 [12] = experiment: In vitro measurements of 2-Deoxyglucose (2DG) uptake in vehicle treated 3T3-L1 adipocytes at 60 uM dose.
L6 = experiment: compound was evaluated for their acute effects in vitro by measuring 2-Deoxyglucose (2DG) uptake in vehicle treated L6 […] at 60 uM dose.
Mus musculus [13] = experiment: compound was tested in vivo for hypoglycemic activity expressed as Glucose lowering relative to positive control in 6-8 week old C57BL/6J ob/ob mouse at 25 mg/kg
3T3-L1 [14] = experiment: In vitro measurements 2-Deoxyglucose (2DG) uptake in vehicle treated 3T3-L1 adipocytes at 100 uM dose.
Mus musculus [15] = experiment: compound was tested in vivo for hypoglycemic activity expressed as Glucose lowering relative to positive control in 6-8 week old C57BL/6J ob/ob mouse at 50 mg/kg
Mus musculus [16] = experiment: compound was tested in vivo for hypoglycemic activity in 6-8 week old C57BL/6J ob/ob mouse at 10 mg/kg
3T3-L1 [17] = experiment: compound was evaluated for their acute effects in vitro by measuring 2-Deoxyglucose (2DG) uptake in vehicle treated 3T3-L1 adipocytes at 1 uM dose.
[18] = Rattus norvegicus, read-out: ED50

C1CCC(NC2CCCCC2)CC1.CC(C)c1ccc(OC(Cc2cccc(Cl)c2)C(=O)O)cc1 (centres undefined)
Basal uptake (3T3-L1 [1]): 160%
Hypoglycemic activity (Mus musculus [2]): 32%
ED50 (Rattus norvegicus [3]; [18]): > 50 mg/kg

C1CCC(NC2CCCCC2)CC1.CC(C)c1ccc(OC(Cc2ccccc2C(F)(F)F)C(=O)O)cc1 (centres undefined)
Basal uptake (3T3-L1 [1]): 191%
Hypoglycemic activity (Mus musculus [2]): <0%
ED50 (Rattus norvegicus [3]; [18]): > 50 mg/kg

CC(C)c1ccc(OC(C)(Cc2ccc(-c3ccccc3)cc2)C(=O)[O-])cc1.[Na+] (centres undefined)
Basal uptake (3T3-L1 [4]): 129%
Basal uptake (3T3-L1 [5]): 126%
Basal uptake (3T3-L1 [6]): 122%
Hypoglycemic activity (Mus musculus [7]): 21%
Hypoglycemic activity (Mus musculus [8]): 116%
Hypoglycemic activity (Mus musculus [9]): 58%
Hypoglycemic activity (Mus musculus [10]): 93%
ED50 (Rattus norvegicus [11]; [18]): 1 mg/kg

Cc1ccc(OC(Cc2ccc(Cl)cc2)C(=O)O)cc1 (centres undefined)
Basal uptake (3T3-L1 [4]): 82%
Basal uptake (3T3-L1 [5]): 88%
Basal uptake (3T3-L1 [12]): <100%
Basal uptake (L6): 93%
Hypoglycemic activity (Mus musculus [13]): 33%
ED50 (Rattus norvegicus [11]; [18]): > 25 mg/kg

CC(C)c1ccc(OC(Cc2ccc(Cl)cc2Cl)C(=O)O)cc1 (centres undefined)
Basal uptake (3T3-L1 [14]): 222%
Hypoglycemic activity (Mus musculus [8]): 30%
Hypoglycemic activity (Mus musculus [15]): 70%
Hypoglycemic activity (Mus musculus [10]): 45%
ED50 (Rattus norvegicus [11]; [18]): 10 mg/kg

CC(C)c1ccc(OC(Cc2ccc(Br)cc2)C(=O)O)cc1 (centres undefined)
Basal uptake (3T3-L1 [14]): 203%
Hypoglycemic activity (Mus musculus [8]): <0%
Hypoglycemic activity (Mus musculus [15]): 122%
ED50 (Rattus norvegicus [11]; [18]): 10 mg/kg

CC(C)c1ccc(OC(C)(Cc2ccc3c(c2)CCC3)C(=O)[O-])cc1.[Na+] (centres undefined)
Hypoglycemic activity (Mus musculus [7]): 34%
Hypoglycemic activity (Mus musculus [8]): 126%
Hypoglycemic activity (Mus musculus [9]): 83%
Hypoglycemic activity (Mus musculus [10]): 121%
ED50 (Rattus norvegicus [11]; [18]): 0.5 mg/kg

O=C(O)C(Cc1ccc(Cl)cc1)Oc1ccccc1 (centres undefined)
Basal uptake (3T3-L1 [12]): 100%
Basal uptake (L6): 86%
Hypoglycemic activity (Mus musculus [13]): <0%
ED50 (Rattus norvegicus [11]; [18]): > 25 mg/kg

COc1ccc(OC(Cc2ccc(Cl)cc2)C(=O)O)cc1 (centres undefined)
Basal uptake (L6): 98%
Hypoglycemic activity (Mus musculus [13]): 23%
ED50 (Rattus norvegicus [11]; [18]): > 25 mg/kg

CC(C)c1ccc2c(c1)CCC(Cc1ccc(Cl)cc1)(C(=O)O)O2 (centres undefined)
Basal uptake (3T3-L1 [4]): 82%
Basal uptake (3T3-L1 [5]): 80%
Basal uptake (3T3-L1 [12]): 114%
Hypoglycemic activity (Mus musculus [15]): 119%
Hypoglycemic activity (Mus musculus [10]): <0%
ED50 (Rattus norvegicus [11]; [18]): 5 mg/kg

Cc1ccccc1S(=O)(=O)[N-]CC(C)(Cc1ccc(Cl)cc1)Oc1ccc(C(C)C)cc1.[Na+] (centres undefined)
Hypoglycemic activity (Mus musculus [16]): 7%
ED50 (Rattus norvegicus [3]; [18]): 10 mg/kg

CC(C)(C)c1ccc(OC(Cc2ccc(Cl)cc2)C(=O)O)cc1 (centres undefined)
Basal uptake (3T3-L1 [4]): 92%
Basal uptake (3T3-L1 [5]): 87%
Basal uptake (3T3-L1 [12]): <100%
Basal uptake (L6): 84%
Hypoglycemic activity (Mus musculus [13]): 53%
ED50 (Rattus norvegicus [11]; [18]): 25 mg/kg

CCC(c1ccc(Cl)cc1)C(C)(Oc1ccc(C(C)C)cc1)C(=O)O (stereo in doubt; 86)
Basal uptake (3T3-L1 [4]): 91%
Basal uptake (3T3-L1 [17]): 97%
Basal uptake (3T3-L1 [5]): 95%
Hypoglycemic activity (Mus musculus [8]; 10 mg/kg): 71%
ED50 (Rattus norvegicus [11]; [18]): < 10 mg/kg

CCC(c1ccc(Cl)cc1)C(C)(Oc1ccc(C(C)C)cc1)C(=O)O (stereo in doubt; 87)
Basal uptake (3T3-L1 [4]): 96%
Basal uptake (3T3-L1 [17]): 98%
Basal uptake (3T3-L1 [5]): 109%
Hypoglycemic activity (Mus musculus [8]; 10 mg/kg): 32%
ED50 (Rattus norvegicus [11]): >10 mg/kg

CC(C)c1ccc(C(F)C(C)(Cc2ccc(Cl)cc2)C(=O)O)cc1 (stereo in doubt; 94)
Hypoglycemic activity (Mus musculus [16]; 10 mg/kg): 63%
ED50 (Rattus norvegicus [3]): 10 mg/kg

CC(C)c1ccc(C(F)C(C)(Cc2ccc(Cl)cc2)C(=O)O)cc1 (stereo in doubt; 95)
Hypoglycemic activity (Mus musculus [16]; 10 mg/kg): 50%
ED50 (Rattus norvegicus [3]; [18]): 10 mg/kg
